Here are results for one molecule from article PMC8634879, “Design, Synthesis, and Biological Evaluation of Pyrano[2,3-c]-pyrazole–Based RalA Inhibitors Against Hepatocellular Carcinoma” (Frontiers in Chemistry, 2021).

The subject of one experiment is Huh-7 cells. Kind of experiment: Cell proliferation assay (MTT), Huh-7. It counts as cell-based. Conditions: Homo sapiens. In short, it runs like this:
(§1)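 HCC lines cultured in DMEM with 10% FBS and streptomycin; cytotoxicity measured by MTT method as previously described.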

The test system of experiment [1] is HepG2 cells. Kind of experiment: Autophagy assays in HepG2 cells (TEM, Western blotting, GFP-LC3 puncta). It counts as cell-based. The protocol: Several reports have characterized RalA/B potential regulatory roles in autophagy ([Zhang et al., 2019]; [Pang et al., 2020]; [Zhang et al., 2020]). Considering the dual effect of HCC autophagy, we assessed changes in HepG2 cell autophagy levels after the addition of 0.5 or 2.0 μM of 4p, before incubation. Based on HepG2 cells’ TEM images with or without 4p (Figure 5B), autophagy vacuoles per cell decreased in the 4p-treated group (p < 0.01). After 4p treatments, LC3-II and ATG5 protein levels declined and SQSTM1 increased. […] In GFP-LC3–transfected HepG2 cells, cytoplasm LC3 fluorescent puncta numbers also declined after 4p treatments. […] The in vivo antitumor capacities of 4p were determined on a HepG2 subcutaneous xenograft model. The 4p intraperitoneal injections were set to 15 mg/kg and 60 mg/kg, according to in vitro results. […] The potential 4p molecular mechanisms were further validated using immunofluorescence and IHC analyses of tissue sections stained by antibodies against TUNEL, Ki-67, RalA, LC3-II, and SQSTM1. […] Therefore, the in vivo results were consistent with in vitro experiments. […]
The autophagy assay is relied on HepG2 cells transfected by GFP-LC3. In brief, the HepG2 cells after transfecting are processed by saline or compound 4p for 6 h, after that the cells are going to fix by paraformaldehyde and the phenomenon of autophagosome punctures can be observed through the accumulated of GFP-LC3 under laser confocal microscopy.
2. Western blotting analysis
For western blotting, the extracts of total protein from each sample were treated in accordance with the method we described previously. In short, the total proteins were loaded into the SDS-PAGE gel and separated through the different of their molecular weight in electrophoresis, after that the separated proteins were shifted into a PVDF membrane (Millipore, Burlington, MA, USA) and incubated through corresponding membrane react pathways. The resulted membranes reacted with major antibodies and HRP (horseradish peroxidase)-conjugated secondary antibodies. The expression profiles of target proteins can be identified through an enhanced chemiluminescence (ECL) substrate. […]
For orientation: In western blotting, separated proteins are transferred to a membrane and probed.

In experiment [2] the target is T1, RalB (Homo sapiens, UniProt P11234).
T1 construct: expressed in transfected cells; host or cells: HepG2 (from b6; the methods paragraph names no cell line)
T1 sequence (P11234 1-203 limits assumed): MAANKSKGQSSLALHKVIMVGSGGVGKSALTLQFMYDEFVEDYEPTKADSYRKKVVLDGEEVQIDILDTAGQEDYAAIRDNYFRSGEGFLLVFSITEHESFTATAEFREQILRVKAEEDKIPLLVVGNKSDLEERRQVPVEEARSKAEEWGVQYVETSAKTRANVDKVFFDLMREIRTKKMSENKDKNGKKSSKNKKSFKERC
Kind of experiment: ELISA-based RalB activity assay (RalBP1-coated plates, lysates of compound-treated cells). It counts as biochemical. In short, it runs like this: (§2)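 Lysates of compound- or vehicle-treated cells, cleared by cold centrifugation, incubated overnight at 4°C on RalBP1-coated plates. Bound Ral detected with mouse anti-FLAG then HRP anti-mouse antibody; reaction stopped with 2 mol/L sulfuric acid and read at OD450.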
On the technique in general: In an ELISA, binding on a coated surface is turned into a signal by an enzyme label.

In another experiment the test system is Hep3B cells. Kind of experiment: Cell proliferation assay (MTT), Hep3B. The class given is cell-based. Conditions: Homo sapiens, average of at least three independent replicates ± SD, read-out: Anti-proliferative activities (IC50, μM) Hep3B. As to the method: The antibodies recognizing LC3, p62/SQSTM1, RalA, RalB, and GAPDH were purchased from Proteintech (Wuhan, China). HCC cell lines, including HepG2, Hep3B, Huh-7, and SMMC-7721, were obtained from the Chinese Center for Type Culture Collection (Wuhan, China) and cultured in DMEM (Dulbecco’s modified Eagle’s medium) with 10% FBS (fetal bovine serum) and streptomycin. Cytotoxicity assays were performed by using the MTT method as previously described.
(§3) The in vitro RalA/B bioactivity assays were performed following methods outlined in previous reports. ([Yan et al., 2016]; [Zhang et al., 2018]; [Walsh et al., 2019]; [Bum-Erdene et al., 2020]). In brief, the lysates of the test compound or vehicle-treated cells were cleared using cold centrifugation, and supernatants were collected. An RalBP1 solution was added to 96-well plates and incubated for 1–2 h, and then the plates were washed thrice using ELISA buffer. Next, cellular lysates were added, and samples were incubated overnight at 4°C. Then, ice-cold mouse anti-FLAG antibody was added, and samples were incubated for one more hour. After subsequent washing with ELISA buffer thrice, the HRP-conjugated anti-mouse antibody was added, and samples were incubated for another hour. Then, the HRP substrate was added. Antigen–antibody reactions were quenched by the addition of sulfuric acid (2 mol/L). Remaining RalA/B was detected by the OD450 values which were collected by using a plate reader. Cell proliferation assays, colony formation assays, apoptosis assays, GST pulldown, and Western blotting were used following methods outlined in our previous reports. ([Zhou et al., 2015]; [Zhang et al., 2016]; [Yang et al., 2017]; [He et al., 2019]). Autophagy levels and protein immunoblotting were used following the methods mentioned in our previous reports ([Pan et al., 2018]; [Wang et al., 2018]; [Hao et al., 2019]; [Wang et al., 2019]; [Peng et al., 2020]). Detailed experimental procedures are described in supporting materials.

Experiment [3] has as its target T1, RalB. Kind of experiment: GST pulldown of activated RalB. It counts as cell-based. Conditions: 2.0 μM. The protocol: GST pulldown assays were performed to assess 4p RalA/B inhibitory capacities. […] Only activated RalA was suppressed after incubation with 0.5 μM of compound 4p (Figure 5A).
as §3, with “([Zhou et al., 2015]; [Zhang et al., 2016]; [Yang et al., 2017]; [He et al., 2019]). Autophagy levels and protein immunoblotting were used following the methods mentioned in our previous reports ([Pan et al., 2018]; [Wang et al., 2018]; [Hao et al., 2019]; [Wang et al., 2019]; [Peng et al., 2020]). Detailed experimental procedures are described in supporting materials.” left out

The target in a further experiment is T2, RalA (Homo sapiens, UniProt P11233).
T2 construct: expressed in transfected cells; host or cells: HepG2 (from b6; the methods paragraph names no cell line)
T2 sequence (P11233 1-203 limits assumed): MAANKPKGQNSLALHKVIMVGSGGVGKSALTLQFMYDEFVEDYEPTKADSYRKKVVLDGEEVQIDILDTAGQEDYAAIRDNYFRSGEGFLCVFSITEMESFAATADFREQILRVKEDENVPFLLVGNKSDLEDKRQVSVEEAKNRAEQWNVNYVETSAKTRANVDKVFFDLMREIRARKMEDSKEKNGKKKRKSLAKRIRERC
Kind of experiment: ELISA-based RalA activity assay (RalBP1-coated plates, lysates of compound-treated cells). It counts as biochemical. The method in brief:
as §2

The subject of experiment [4] is HepG2 cells. Kind of experiment: Cell proliferation assay (MTT), HepG2. Conditions: Homo sapiens. It counts as cell-based. In short, it runs like this:
as §1

SMILES strings stand for the structures. Where two headings read alike, the source gives them in different places.

Broadly, the IC50 is the concentration that inhibits the measured activity by half. As a reminder, the remaining activity is the activity still measured, relative to the control. Low readings indicate a large loss of activity, high ones a small loss of activity. On to `COc1ccc(S(=O)(=O)NC2=C(C#N)C(c3ccc(C(F)(F)F)cc3)c3c(C)nn(-c4ccccc4)c3O2)cc1` (centres unmarked) [4p, N-(5-cyano-3-methyl-1-phenyl-4-(4-(trifluoromethyl)phenyl)-1,4-dihydropyrano[2,3-c]-pyrazol-6-yl)-4-methoxybenzenesulfonamide], for which the half-inhibitory concentration (IC50) with Huh-7 cells (Table 1, cell proliferation inhibition, read-out: IC50 (μM) Huh7) amounted to 4.31 ± 0.39 µM; with Huh-7 cells (Table 2, average of at least three independent replicates ± SD, read-out: Anti-proliferative activities (IC50, μM) Huh-7), 4.31 ± 0.39 µM; on RalB [2] (enzymatic inhibition, average of at least three independent replicates ± SD, read-out: Kinase activities (IC50, μM) RalB), 0.41 ± 0.07 µM; in the experiment with Hep3B cells, 2.71 ± 0.27 µM; on RalA (enzymatic inhibition, average of at least three independent replicates ± SD, read-out: Kinase activities (IC50, μM) RalA) it was 0.22 ± 0.04 µM; in the experiment on HepG2 cells [4] (HepG2, Table 1, cell proliferation inhibition, read-out: IC50 (μM) HepG2) it was 2.28 ± 0.23 µM. Further, the 50% inhibitory concentration (IC50) with HepG2 cells [4] (HepG2, Table 2, average of at least three independent replicates ± SD, read-out: Anti-proliferative activities (IC50, μM) HepG2) amounted to 2.28 ± 0.23 µM. In the experiment with HepG2 cells [1] (GFP-LC3–transfected HepG2 cells, 2.0 μM), the “cytoplasm LC3 fluorescent puncta numbers” value is on record as “declined”. In the experiment with HepG2 cells [1] (HepG2, 0.5 or 2.0 μM), the “LC3-II and ATG5 protein levels (Western blotting)” value was “declined”. Moreover, the “SQSTM1 protein level (Western blotting)” value with HepG2 cells [1] (HepG2, 0.5 or 2.0 μM) is recorded as “increased”. In addition, the “autophagy vacuoles per cell (TEM)” value in the experiment with HepG2 cells [1] (HepG2, 4p-treated group, p < 0.01) is reported as “decreased”. The remaining activity at 1 µM at RalB [2] (1 μM compound, % control = active (RalBP1-bound) RalB remaining) was determined as 22%; on RalA (1 μM compound, % control = activity remained) it was 13%. Moreover, the “activated RalB protein expression level” value at RalB [3] is “significantly suppressed”.
